Experimental data reported in patent US12678419B2, “Compounds” (Sitryx Therapeutics Limited, priority 2020, dated 2026).

What was measured:
[1] = system: mouse hepatocytes; test: Hepatocyte stability assay, mouse; assay type: in vitro ADME; settings: 10 μM compound
From the text: (§1) Defrosted cryo-preserved hepatocytes (viability >70%) were used to determine the metabolic stability of a compound via calculation of intrinsic clearance (Clint; a measure of the removal of a compound from the liver in the absence of blood flow and cell binding). Clearance data are particularly important for in vitro work as they can be used in combination with in vivo data to predict the half-life and oral bioavailability of a drug.
(§2) The metabolic stability in hepatocytes assay involves a time-dependent reaction using both positive and negative controls. The cells were pre-incubated at 37° C. and spiked with test compound (and positive control); samples were taken at pre-determined time intervals were analysed to monitor the change in concentration of the initial drug compound over 60 minutes. A buffer incubation reaction (with no hepatocytes present) acted as a negative control and two cocktail solutions, containing compounds with known high and low clearance values (verapamil/7-hydroxycoumarin and propranolol/diltiazem), acted as positive controls. • 1. The assay was run with a cell concentration of 0.5×10^6 cells/mL in Leibovitz buffer. • 2. All compounds and controls were run in duplicate. • 3. Compound concentration was 10 μM. • 4. All compounds and controls were incubated with both cells and buffer to show turnover was due to hepatic metabolism. • 5. All wells on the incubation plate had 326.7 μL of either cells or buffer added. • 6. Prior to assay, cell and buffer-only incubation plates were preincubated for 10 mins at 37° C. • 7. The assay was initiated by adding compounds, 3.3 μL of 1 mM in 10% DMSO-90% Buffer; final DMSO concentration was 0.1%. • 8. Samples were taken at regular timepoints (0, 5, 10, 20, 40, 60 min) until 60 mins. • 9. Sample volume was 40 μL and was added to 160 μL of crash solvent (acetonitrile with internal standard) and stored on ice. • 10. At the end of the assay, the crash plates were centrifuged at 3500 rpm for 20 mins at 4° C. • 11. 80 μL of clear supernatant was removed and mixed with 80 μL of deionised water before being analysed by LC-MS/MS.
(§3) Raw LC-MS/MS data was exported to, and analysed in, Microsoft Excel for determination of intrinsic clearance. The percentage remaining of a compound was monitored using the peak area of the initial concentration as 100%. Intrinsic clearance and half-life values were calculated using a graph of the natural log of percentage remaining versus the time of reaction in minutes. Half-life (min) and intrinsic clearance (Clint in μL min^−1 10^−6 cells) values were calculated using the gradient of the graph (the elimination rate constant, k) and Equations 1 and 2.

[2] = system: NRF2 (nuclear factor erythroid 2-related factor 2); test: NRF2 +/-GSH activation assay (DiscoverX PathHunter NRF2 translocation kit, U2OS cells); assay type: cell-based; settings: for Emax (%) +GSH / Emax (%) −GSH: normalised to dimethyl fumarate high control
[3] = system: human hepatocytes; test: Hepatocyte stability assay, human; assay type: in vitro ADME; settings: 10 μM compound
From the text: as §1, §2, §3

[4] = system: IL-1β cytokine output from THP-1s; test: THP-1 AlphaLISA IL-1β cytokine assay; assay type: cell-based
Procedure: (§4) The cytokine inhibition profiles of compounds of formula (I) were determined in a differentiated THP-1 cell assay. All assays were performed in RPMI-1640 growth medium (Gibco), supplemented with 10% fetal bovine serum (FBS; Gibco), 1% penicillin-streptomycin and 1% sodium pyruvate unless specified otherwise. The IL-1β and IL-6 cytokine inhibition assays were each run in a background of differentiated THP-1 cells as described below. All reagents described were from Sigma-Aldrich unless specified otherwise. Compounds were prepared as 10 mM DMSO stocks.
(§5) THP-1 cells were expanded as a suspension up to 80% confluence in appropriate growth medium. Cells were harvested, suspended, and treated with an appropriate concentration of phorbol 12-myristate 13-acetate (PMA) over a 72 hr period (37° C./5% CO2).
(§6) Following 72 hrs of THP-1 cell incubation, cellular medium was removed and replaced with fresh growth media containing 1% of FBS. Working concentrations of compounds were prepared separately in 10% FBS treated growth medium and pre-incubated with the cells for 30 minutes (37° C./5% CO2). Following the 30 minute compound pre-incubation, THP-1s were treated with an appropriate concentration of LPS and the THP-1s were subsequently incubated for a 24 hr period (37° C./5% CO2). An appropriate final concentration of Nigericin was then dispensed into the THP-1 plates and incubated for 1 hour (37° C./5% CO2) before THP-1 supernatants were harvested and collected in separate polypropylene 96-well holding plates.
(§7) Reagents from each of the IL-1β and IL-6 commercial kits (Perkin Elmer) were prepared and run according to the manufacturer's instructions. Subsequently, fluorescence signal detection in a microplate reader was measured (EnVision® Multilabel Reader, Perkin Elmer).
(§8) Percentage inhibition was calculated per cytokine by normalising the sample data to the high and low controls used within each plate (+/− LPS respectively). Percentage inhibition was then plotted against compound concentration and the 50% inhibitory concentration (IC50) was determined from the resultant concentration-response curve.

[5] = system: IL-6 cytokine output from THP-1s; test: THP-1 AlphaLISA IL-6 cytokine assay; assay type: cell-based; settings: Homo sapiens, THP-1, differentiated THP-1 cells, LPS then nigericin; Table 1
Procedure: as §4, §5, §6, §7, §8

[6] = Homo sapiens, THP-1, differentiated THP-1 cells, LPS then nigericin, Table 1
[7] = Homo sapiens, THP-1, differentiated THP-1 cells, Table 2, compounds of formula (XVI)
[8] = differentiated THP-1 cells, Table 2, compounds of formula (XVI)
[9] = differentiated THP-1 cells, LPS then nigericin, Table 1

SMILES: C=C(CC(=O)OC1CCc2cc(Cl)cc(Cl)c21)C(=O)OCC(=O)O (single isomer, unassigned; enantiomer 1) [Example 8, 2-((4-((5,7-dichloro-2,3-dihydro-1H-inden-1-yl)oxy)-2-methylene-4-oxobutanoyl)oxy)acetic acid (Enantiomer 1)]
- Clint (μL min^−1 10^−6 cells) [1]: 316 μL min^−1 10^−6 cells
- T½ [1]: 4 min
- EC50 ([2]; +GSH): 16.4 µM
- Emax (%) +GSH ([2]; +GSH): 264%
- EC50 ([2]; −GSH): 4.8 µM
- Emax (%) −GSH ([2]; −GSH): 268%
- Clint (μL min^−1 10^−6 cells) [3]: 15 μL min^−1 10^−6 cells
- T½ [3]: 106 min
- IC50 [4, 6]: 10.6 µM

SMILES: C=C(CC(=O)OC1CCc2cc(Br)c(OC)cc21)C(=O)OCC(=O)O (single isomer, unassigned; enantiomer 1) [Example 12, 2-((4-((5-bromo-6-methoxy-2,3-dihydro-1H-inden-1-yl)oxy)-2-methylene-4-oxobutanoyl)oxy)acetic acid (Enantiomer 1)]
- IC50 [4, 6]: 46.4 µM

SMILES: C=C(CC(=O)OC1CCc2c(Cl)cc(F)cc21)C(=O)OCC(=O)O (single isomer, unassigned; enantiomer 1) [Example 19, 2-((4-((4-chloro-6-fluoro-2,3-dihydro-1H-inden-1-yl)oxy)-2-methylene-4-oxobutanoyl)oxy)acetic acid (Enantiomer 1)]
- Clint (μL min^−1 10^−6 cells) [1]: 37 μL min^−1 10^−6 cells
- T½ [1]: 41 min
- EC50 ([2]; +GSH): 10.1 µM
- Emax (%) +GSH ([2]; +GSH): 48%
- EC50 ([2]; −GSH): 18.1 µM
- Emax (%) −GSH ([2]; −GSH): 224%
- Clint (μL min^−1 10^−6 cells) [3]: 4 μL min^−1 10^−6 cells
- T½ [3]: 335 min
- IC50 [4, 6]: 2.2 µM

SMILES: C=C(CC(=O)OC1CCc2c(Cl)cc(Cl)cc21)C(=O)O (single isomer, unassigned; enantiomer 1) [Intermediate 25, 4-((4,6-dichloro-2,3-dihydro-1H-inden-1-yl)oxy)-2-methylene-4-oxobutanoic acid Enantiomer 1]
- IC50 [4, 7]: 43.2 µM

SMILES: C=C(CC(=O)OC1CCCc2cc(C(F)(F)F)ccc21)C(=O)O (single isomer, unassigned; enantiomer 1) [Intermediate 40, 2-methylene-4-oxo-4-((6-(trifluoromethyl)-1,2,3,4-tetrahydronaphthalen-1-yl)oxy)butanoic acid (Enantiomer 1)]
- IC50 [4, 8]: 5.3 µM

SMILES: C=C(CC(=O)OC1CCc2cc(Cl)c(Cl)cc21)C(=O)OCC(=O)O (single isomer, unassigned; enantiomer 2) [Example 6, 2-((4-((5,6-dichloro-2,3-dihydro-1H-inden-1-yl)oxy)-2-methylene-4-oxobutanoyl)oxy)acetic acid (Enantiomer 2)]
- Clint (μL min^−1 10^−6 cells) [1]: 69 μL min^−1 10^−6 cells
- T½ [1]: 19 min
- EC50 ([2]; +GSH): 17.4 µM
- Emax (%) +GSH ([2]; +GSH): 215%
- EC50 ([2]; −GSH): 8.3 µM
- Emax (%) −GSH ([2]; −GSH): 242%
- Clint (μL min^−1 10^−6 cells) [3]: 8 μL min^−1 10^−6 cells
- T½ [3]: 207 min
- IC50 [4, 9]: 9.9 µM

SMILES: C=C(CC(=O)OC1CCc2cc(Cl)cc(Cl)c21)C(=O)OCC(=O)O (single isomer, unassigned; enantiomer 2) [Example 9, 2-((4-((5,7-dichloro-2,3-dihydro-1H-inden-1-yl)oxy)-2-methylene-4-oxobutanoyl)oxy)acetic acid (Enantiomer 2)]
- Clint (μL min^−1 10^−6 cells) [1]: 61 μL min^−1 10^−6 cells
- T½ [1]: 21 min
- EC50 ([2]; +GSH): 20.6 µM
- Emax (%) +GSH ([2]; +GSH): 204%
- EC50 ([2]; −GSH): 8.1 µM
- Emax (%) −GSH ([2]; −GSH): 244%
- Clint (μL min^−1 10^−6 cells) [3]: 4 μL min^−1 10^−6 cells
- T½ [3]: 428 min
- IC50 [4, 9]: 11.7 µM

SMILES: C=C(CC(=O)OC1CCc2cc(Cl)cc(Cl)c2C1)C(=O)OCC(=O)O (single isomer, unassigned; enantiomer 2) [Example 11, 2-((4-((6,8-dichloro-1,2,3,4-tetrahydronaphthalen-2-yl)oxy)-2-methylene-4-oxobutanoyl)oxy)acetic acid (Enantiomer 2)]
- Clint (μL min^−1 10^−6 cells) [1]: 311 μL min^−1 10^−6 cells
- T½ [1]: 5 min
- Clint (μL min^−1 10^−6 cells) [3]: 24 μL min^−1 10^−6 cells
- T½ [3]: 62 min
- IC50 [4, 9]: 6.1 µM

SMILES: C=C(CC(=O)OC1CCc2cc(Br)c(OC)cc21)C(=O)OCC(=O)O (single isomer, unassigned; enantiomer 2) [Example 13, 2-((4-((5-bromo-6-methoxy-2,3-dihydro-1H-inden-1-yl)oxy)-2-methylene-4-oxobutanoyl)oxy)acetic acid (Enantiomer 2)]
- IC50 [4, 9]: 34.9 µM

SMILES: C=C(CC(=O)OC1CCc2c(Br)cc(F)cc21)C(=O)OCC(=O)O (single isomer, unassigned; enantiomer 2) [Example 16, 2-((4-((4-bromo-6-fluoro-2,3-dihydro-1H-inden-1-yl)oxy)-2-methylene-4-oxobutanoyl)oxy)acetic acid (Enantiomer 2)]
- Clint (μL min^−1 10^−6 cells) [1]: >460 μL min^−1 10^−6 cells
- T½ [1]: <3 min
- Clint (μL min^−1 10^−6 cells) [3]: 15 μL min^−1 10^−6 cells
- T½ [3]: 95 min
- IC50 [4, 9]: 2.6 µM

SMILES: C=C(CC(=O)OC1CCCc2cc(C(F)(F)F)ccc21)C(=O)O (single isomer, unassigned; enantiomer 2) [Intermediate 41, 2-methylene-4-oxo-4-((6-(trifluoromethyl)-1,2,3,4-tetrahydronaphthalen-1-yl)oxy)butanoic acid (Enantiomer 2)]
- IC50 [4, 8]: 31.7 µM

SMILES: C=C(CC(=O)OCCCCCCCC)C(=O)O [4-octyl itaconate, reference compound]
- Clint (μL min^−1 10^−6 cells) [1]: 351 μL min^−1 10^−6 cells
- T½ [1]: 4 min
- Clint (μL min^−1 10^−6 cells) [3]: 401 μL min^−1 10^−6 cells
- T½ [3]: 4 min

SMILES: C=C(CC(=O)OC1CCc2cc(C(F)(F)F)ccc21)C(=O)O (centres unmarked) [Intermediate 37, 2-methylene-4-oxo-4-((5-(trifluoromethyl)-2,3-dihydro-1H-inden-1-yl)oxy)butanoic acid]
- IC50 [4, 7]: 18.3 µM

SMILES: C=C(CC(=O)OC)C(=O)OC [dimethyl itaconate, reference compound]
- IC50 [5]: > 100 µM
- IC50 [4, 6]: > 100 µM
- IC50 [4, 7]: > 100 µM
